Measurements as given in publication PMC3790966, “Honokiol: A non-adipogenic PPARγ agonist from nature^” (Biochimica et Biophysica Acta, 2013).

Experiments:
PPARγ = biological target: T1, PPARγ (Homo sapiens, UniProt P37231); assay: LanthaScreen TR-FRET competitive binding assay with purified LBD; supported by luciferase transactivation (partial agonist, EC50 […])
T1 construct: gene PPARG
T1 sequence (P37231 231-505 limits assumed): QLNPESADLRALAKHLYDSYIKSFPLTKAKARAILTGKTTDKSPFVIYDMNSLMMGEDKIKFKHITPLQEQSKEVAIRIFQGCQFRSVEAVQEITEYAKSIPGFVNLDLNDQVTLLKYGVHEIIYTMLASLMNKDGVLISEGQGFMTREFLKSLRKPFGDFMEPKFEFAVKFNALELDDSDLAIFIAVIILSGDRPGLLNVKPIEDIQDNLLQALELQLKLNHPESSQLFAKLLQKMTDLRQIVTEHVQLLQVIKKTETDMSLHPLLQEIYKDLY

PPARβ/δ = biological target: T2, PPARβ/δ (Homo sapiens, UniProt Q03181); assay: LBD binding (data not shown), three to four-fold higher concentrations than for PPARγ
T2 construct: gene PPARD; LBD
T2 sequence (Q03181 171-441 limits assumed): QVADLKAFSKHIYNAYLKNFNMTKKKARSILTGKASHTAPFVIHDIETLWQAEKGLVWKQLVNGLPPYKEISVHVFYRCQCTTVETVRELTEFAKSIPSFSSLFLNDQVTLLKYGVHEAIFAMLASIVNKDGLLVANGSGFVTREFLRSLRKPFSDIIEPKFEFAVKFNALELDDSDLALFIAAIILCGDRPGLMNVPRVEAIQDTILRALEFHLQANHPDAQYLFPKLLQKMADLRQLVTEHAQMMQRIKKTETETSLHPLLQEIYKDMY

PPARα = biological target: T3, PPARα (Homo sapiens, UniProt Q07869); assay: as above
T3 construct: gene PPARA; LBD
T3 sequence (Q07869 196-468 limits assumed): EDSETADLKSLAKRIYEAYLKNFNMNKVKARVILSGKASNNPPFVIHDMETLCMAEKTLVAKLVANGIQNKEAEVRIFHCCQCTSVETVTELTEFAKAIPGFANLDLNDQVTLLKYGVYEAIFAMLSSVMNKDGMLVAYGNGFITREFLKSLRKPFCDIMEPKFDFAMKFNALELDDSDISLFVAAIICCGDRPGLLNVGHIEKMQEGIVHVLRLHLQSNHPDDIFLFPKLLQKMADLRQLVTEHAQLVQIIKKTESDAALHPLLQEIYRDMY

Compound: C=CCc1ccc(O)c(-c2ccc(O)c(CC=C)c2)c1 [honokiol]
- Ki (PPARγ): 22.9 µM
- LBD binding (data not shown), three to four-fold higher concentrations than for (PPARβ/δ): Honokiol also bound to the LBDs of PPARα and PPARβ/δ but only at considerably (three to four-fold) higher concentrations
- LBD binding (data not shown), three to four-fold higher concentrations than for (PPARα): Honokiol also bound to the LBDs of PPARα and PPARβ/δ but only at considerably (three to four-fold) higher concentrations
